In patent US11780826B2 (Amgen Inc., priority 2017, dated 2023) one finds AC1.4 data, which are given here for 24 compounds.

The test system of this experiment is Bovine cardiac myofibrils. Description: In vitro model of dose-dependent myofibril ATPase modulation (AC1.4, pyruvate kinase/lactate dehydrogenase-coupled ATPase assay at pCa25). Format: biochemical. Particulars: concentration at which ATPase activity was 1.4-fold higher than the bottom of the dose curve, mean of a minimum of two independent tests. Here is the method: In vitro Model of Dose-Dependent Myofibril ATPase Modulation: Dose responses were measured using a calcium-buffered, pyruvate kinase and lactate dehydrogenase-coupled ATPase assay containing the following reagents (concentrations expressed are final assay concentrations): Potassium PIPES (12 mM), MgCl2 (2 mM), ATP (1 mM), DTT (1 mM), BSA (0.1 mg/mi), NADH (0.5 mM), PEP (1.5 mM), pyruvate kinase (4 U/ml), lactate dehydrogenase (8 U/ml), and antifoam (90 ppm). The pH was adjusted to 6.80 at 22° C. by addition of potassium hydroxide.
Bovine cardiac myofibrils were obtained by homogenizing the appropriate tissue in the presence of detergent. Such treatment removes membranes and majority of soluble cytoplasmic proteins but leaves intact cardiac sarcomeric acto-myosin apparatus. Concentrations of myofibrils were adjusted to achieve the necessary rate of ATP hydrolysis (typically 0.25-1.0 mg/ml).
Assays were performed by first preparing a dilution series of test chemical entity, each with an assay mixture containing potassium Pipes, MgCl2, BSA, DTT, pyruvate kinase, lactate dehydrogenase, myofibrils, antifoam, EGTA, CaCl2, and water. The assay was started by adding an equal volume of solution containing potassium Pipes, MgCl2, BSA, DTT, ATP, NADH, PEP, antifoam, and water. ATP hydrolysis was monitored by absorbance at 340 nm. The resulting dose response curve was fit by the 4 parameter equation y=Bottom+((Top−Bottom)/(1+((EC50/X)^Hill))). […] AC1.4 values reported in the table below are mean values based on a minimum of two independent tests.
Turning to `CC1(O)CN(S(=O)(=O)c2cccc(C(=O)N3CCC[C@@H]3C(=O)NCc3ccc(C(F)(F)F)cc3F)c2)C1` [Example 368, N-(2-fluoro-4-(trifluoromethyl)benzyl)-1-(3-((3-hydroxy-3-methyl-1-azetidinyl)sulfonyl)benzoyl)-D-prolinamide], the AC1.4 came to 1.2 µM.

The compound `Cc1ccc(C(F)(F)F)cc1CNC(=O)[C@H]1CCCN1C(=O)[C@H]1CCCN(S(=O)(=O)N2CC(C#N)C2)C1` [Example 714, 1-(((3S)-1-((3-cyano-1-azetidinyl)sulfonyl)-3-piperidinyl)carbonyl)-N-(2-methyl-5-(trifluoromethyl)benzyl)-D-prolinamide] displayed an AC1.4 of 6.0545 µM. In the case of `Cc1ccc(CNC(=O)[C@H]2CCCN2C(=O)[C@H]2CCCN(S(=O)(=O)N3CC(C#N)C3)C2)cc1Cl` [Example 130, N-(3-chloro-4-methylbenzyl)-1-(((3S)-1-((3-cyano-1-azetidinyl)sulfonyl)-3-piperidinyl)carbonyl)-D-prolinamide] it was 0.214 µM; in that of `COc1cc(C(=O)N2[C@@H](C(=O)N[C@@H](c3cc(F)c(C(F)(F)F)cc3F)C3COC3)C[C@H]3C[C@H]32)ccn1` [Example 815, (1R,3R,5R)-N-((R)-(2,5-difluoro-4-(trifluoromethyl)phenyl)(oxetan-3-yl)methyl)-2-(2-methoxyisonicotinoyl)-2-azabicyclo[3.1.0]hexane-3-carboxamide], 2.4 µM.

As for `CS(=O)(=O)c1ccc(C(=O)N2C[C@@H](F)C[C@@H]2C(=O)N[C@@H](c2cc(F)c(Cl)cc2F)C2CC2)cn1` [Example 262, (4S)-N-((R)-(4-chloro-2,5-difluorophenyl)(cyclopropyl)methyl)-4-fluoro-1-((6-(methylsulfonyl)-3-pyridinyl)carbonyl)-D-prolinamide], the AC1.4 was determined as 0.6468 µM. For the compound `CS(=O)(=O)c1cccc(C(=O)N2[C@@H](C(=O)N[C@@H](c3ccc(C(F)(F)F)cc3)C3COC3)C[C@H]3C[C@H]32)c1` [Example 375, (1R,3R,5R)-2-(3-(methylsulfonyl)benzoyl)-N-((R)-3-oxetanyl(4-(trifluoromethyl)phenyl)methyl)-2-azabicyclo[3.1.0]hexane-3-carboxamide], the AC1.4 amounted to 1.2153 µM.

In turn, `CCCS(=O)(=O)c1cccc(C(=O)N2CCCC[C@@H]2C(=O)N[C@@H](c2ccc(C(F)(F)F)cc2F)C2CC2)c1` [Example 89, (2R)-N-((R)-cyclopropyl(2-fluoro-4-(trifluoromethyl)phenyl)methyl)-1-(3-(propylsulfonyl)benzoyl)-2-piperidinecarboxamide] had an AC1.4 of 0.1357 µM.

With `Cc1c(CNC(=O)[C@H]2CCCN2C(=O)[C@H]2CCCN(S(=O)(=O)N3CC(C#N)C3)C2)cccc1C(F)(F)F` [Example 145, 1-(((3S)-1-((3-cyano-1-azetidinyl)sulfonyl)-3-piperidinyl)carbonyl)-N-(2-methyl-3-(trifluoromethyl)benzyl)-D-prolinamide], the AC1.4 worked out at 0.2465 µM.

With `N#CC1CN(S(=O)(=O)N2CCC[C@H](C(=O)N3CCC[C@@H]3C(=O)NCc3ccc(C(F)(F)F)cn3)C2)C1` [Example 373, 1-(((3S)-1-((3-cyano-1-azetidinyl)sulfonyl)-3-piperidinyl)carbonyl)-N-((5-(trifluoromethyl)-2-pyridinyl)methyl)-D-prolinamide], the AC1.4 was found to be 1.2258 µM. In the case of `CC1(O)CN(S(=O)(=O)N2CCC[C@H](C(=O)N3CCC[C@@H]3C(=O)NCc3ccc(C(F)(F)F)cc3)C2)C1` [Example 730, 1 (((3S)-1-((3-hydroxy-3-methyl-1-azetidinyl)sulfonyl)-3-piperidinyl)carbonyl)-N-(4-(trifluoromethyl)benzyl)-D-prolinamide] it was 6.7333 µM; in that of `O=C(N[C@@H](c1ccc(C(F)(F)F)cc1F)C1COC1)[C@H]1C[C@H]2C[C@H]2N1C(=O)c1cccc(C(F)(F)F)n1` [Example 789, (1R,3R,5R)-N-((R)-(2-fluoro-4-(trifluoromethyl)phenyl)(3-oxetanyl)methyl)-2-((6-(trifluoromethyl)-2-pyridinyl)carbonyl)-2-azabicyclo[3.1.0]hexane-3-carboxamide], 8.9635 µM. Consider `N#CC1CN(S(=O)(=O)N2CCC[C@H](C(=O)N3CCC[C@@H]3C(=O)NCc3ccc(F)c(Cl)c3)C2)C1` [Example 272, N-(3-chloro-4-fluorobenzyl)-1-(((3S)-1-((3-cyano-1-azetidinyl)sulfonyl)-3-piperidinyl)carbonyl)-D-prolinamide], for which the AC1.4 came to 0.6904 µM. Take `Cc1cccc(F)c1CNC(=O)[C@H]1CCCN1C(=O)[C@H]1CCCN(S(=O)(=O)N2CC(C#N)C2)C1` [Example 607, 1-(((3S)-1-((3-cyano-1-azetidinyl)sulfonyl)-3-piperidinyl)carbonyl)-N-(2-fluoro-6-methylbenzyl)-D-prolinamide]: the AC1.4 was determined as 3.714 µM. The compound `N#CC1CN(S(=O)(=O)N2CCC[C@H](C(=O)N3CCC[C@@H]3C(=O)N[C@H](CO)c3ccc(Cl)c(F)c3)C2)C1` [Example 78, N-((1S)-1-(4-chloro-3-fluorophenyl)-2-hydroxyethyl)-1-(((3S)-1-((3-cyano-1-azetidinyl)sulfonyl)-3-piperidinyl)carbonyl)-D-prolinamide] showed an AC1.4 of 0.1023 µM.

`CC(C)(C#N)c1cccc(C(=O)N2[C@@H](C(=O)N[C@@H](c3ccc(C(F)(F)F)cc3F)C3COC3)C[C@H]3C[C@H]32)c1` [Example 412, (1R,3R,5R)-2-(3-(2-cyano-2-propanyl)benzoyl)-N-((R)-(2-fluoro-4-(trifluoromethyl)phenyl)(3-oxetanyl)methyl)-2-azabicyclo[3.1.0]hexane-3-carboxamide] yielded an AC1.4 of 1.495 µM.

`Cc1ccccc1CNC(=O)[C@H]1CCCN1C(=O)[C@H]1CCCN(S(=O)(=O)N2CC(C#N)C2)C1` [Example 571, 1-(((3S)-1-((3-cyano-1-azetidinyl)sulfonyl)-3-piperidinyl)carbonyl)-N-(2-methylbenzyl)-D-prolinamide] had an AC1.4 of 3.1845 µM. In the case of `Cc1ccc(CNC(=O)[C@H]2CCCN2C(=O)[C@H]2CCCN(S(=O)(=O)N3CC(C#N)C3)C2)c(Cl)c1` [Example 191, N-(2-chloro-4-methylbenzyl)-1-(((3S)-1-((3-cyano-1-azetidinyl)sulfonyl)-3-piperidinyl)carbonyl)-D-prolinamide] it was 0.3593 µM.

In turn, `N#CC1CN(S(=O)(=O)N2CCC[C@H](C(=O)N3CCC[C@@H]3C(=O)NCc3ccccc3C(F)(F)F)C2)C1` [Example 746, 1-(((3S)-1-((3-cyano-1-azetidinyl)sulfonyl)-3-piperidinyl)carbonyl)-N-(2-(trifluoromethyl)benzyl)-D-prolinamide] came in with an AC1.4 of 7.268 µM. The figure for `O=C(NCc1ccc(C(F)(F)F)cc1)[C@H]1CCCN1C(=O)[C@H]1CCCN(S(=O)(=O)N2CCC2c2ccccc2F)C1` (stereo partly drawn) [Example 302, (2R)-1-((3S)-1-((2-(2-fluorophenyl)azetidin-1-yl)sulfonyl)piperidine-3-carbonyl)-N-(4-(trifluoromethyl)benzyl)pyrrolidine-2-carboxamide] is 0.7944 µM. The figure for `N#CC1CN(S(=O)(=O)c2cccc(C(=O)N3CCC[C@@H]3C(=O)NC3CC(C(F)(F)F)C3)c2)C1` (stereo partly drawn) [Example 759, 1-((3-((3-cyano-1-azetidinyl)sulfonyl)phenyl)carbonyl)-N-(cis-3-(trifluoromethyl)cyclobutyl)-D-prolinamide,1-((3-((3-cyano-1-azetidinyl)sulfonyl)phenyl)carbonyl)-N-(trans-3-(trifluoromethyl)cyclobutyl)-D-prolinamide] is 7.6347 µM; for `CC[C@@H](NC(=O)[C@H]1CCCN1C(=O)c1cccc(S(C)(=O)=O)c1)c1ccc(Cl)c(F)c1` [Example 772, N-((1R)-1-(4-chloro-3-fluorophenyl)propyl)-1-(3-(methylsulfonyl)benzoyl)-D-prolinamide] it is 8.175 µM. The figure for `COc1cc(C)ccc1CNC(=O)[C@H]1CCCN1C(=O)[C@H]1CCCN(S(=O)(=O)N2CC(C#N)C2)C1` [Example 417, 1-(((3S)-1-((3-cyano-1-azetidinyl)sulfonyl)-3-piperidinyl)carbonyl)-N-(2-methoxy-4-methylbenzyl)-D-prolinamide] is 1.53 µM; for `O=C(N[C@@H](c1cc(F)c(Cl)cc1F)C1CC1)[C@H]1C[C@H]2C[C@H]2N1C(=O)c1cccc(S(=O)(=O)C2CC2)c1` [Example 92, (1R,3R,5R)-N-((R)-(4-chloro-2,5-difluorophenyl)(cyclopropyl)methyl)-2-(3-(cyclopropylsulfonyl)benzoyl)-2-azabicyclo[3.1.0]hexane-3-carboxamide] it is 0.1388 µM. Regarding `N#CC1CN(S(=O)(=O)c2cc(C(=O)N3CCC[C@@H]3C(=O)NCc3ccc(C(F)(F)F)cc3F)ccn2)C1` [Example 142, 1-((2-((3-cyano-1-azetidinyl)sulfonyl)-4-pyridinyl)carbonyl)-N-(2-fluoro-4-(trifluoromethyl)benzyl)-D-prolinamide], the AC1.4 came out at 0.2421 µM.
